# Results taken from article PMC7403315, “Cyclic peptide FXII inhibitor provides safe anticoagulation in a thrombosis model and in artificial lungs” (Nature Communications, 2020).
# Values joined by “and” are separate entries in the source; they are usually repeats but may differ in a detail not shown here. Equal entries are not always repeated. Starred links: 1 amine or outer side, 2 acyl side, 3 side chain; linkers in the order of their positions; H or OH if unused. Positions of bridges follow the written chain, without caps; N, C: chain ends. Non-standard residues stand in square brackets, D forms with d. Residues, ends and D or L forms follow the SMILES beside them. TATA = O=C(CC[*:1])N1CN(C(=O)CC[*:2])CN(C(=O)CC[*:3])C1; Phe(4-F) = N[C@@H](Cc1ccc(F)cc1)C(=O)O; β3hR = N=C(N)NCCC[C@H](N)CC(=O)O
# Tests used:
# Test in all cases: Specificity profiling, residual protease activity
# Assay type in all cases: biochemical
# tPA = target: T1, tPA (Homo sapiens, UniProt P00750)
# T1 construct: purchased Molecular Innovations
# Description: (§1) Protease inhibition assays
# (§2) The inhibitory activity of peptides was determined by measuring the residual protease activity with a fluorogenic substrate. The assay was performed in buffer containing 10 mM Tris-Cl, pH […]
# (§3) 1% (v/v) DMSO in a volume of 150 µl. […]
# (§4) HFXIIAB) were used at final concentrations of 0.4 nM. The reaction was pipetted as follows: 50 µl of bicyclic peptide in assay buffer were added to 50 µl of FXIIa in assay buffer and incubated for 10 minutes at 25°C before 50 µl of 150 µM fluorogenic substrate in assay buffer were added to measure the residual protease activity with an Infinite M200Pro fluorescence plate reader (excitation at 368 nm, emission at 467 nm; Tecan) for a period of 30 minutes with a read every minute at 25°C. The Tecan software i-control (version 1.1) was used for data analysis. Stock solutions of 1 mM bicyclic peptide were prepared by either dissolving the unpurified cyclization reaction with water or by dissolving purified and lyophilized peptide in water. The bicyclic peptides were serially diluted two-fold using assay buffer. Sigmoidal curves were fitted to the data using the following dose response equation (1), wherein x = peptide concentration, y = % protease activity, and p = Hill slope. IC50 values were derived from the fitted curve.
# (§5) The inhibition constants (Ki) were calculated according to the equation of Cheng and Prusoff, Ki = IC50/(1+([S]0/Km), wherein IC50 is the functional strength of the inhibitor, [S]0 is the total substrate concentration, and Km is the Michaelis-Menten constant. […]
# (§6) For testing the specificity of the bicyclic peptides, the following final concentrations of human serine proteases were used: tPA (Molecular Innovations) 7.5 nM, uPA (Molecular Innovations) 1.5 nM, factor XIa (Innovative Research) 6 nM, plasma kallikrein (Innovative Research) 0.25 nM, thrombin (Molecular Innovations) 1 nM, plasmin (Molecular Innovations) 2.5 nM, trypsin (Molecular Innovations) 0.05 nM, factor VIIa (Haematologic Technologies) 50 nM, factor Xa […]
# (§7) (Haematologic Technologies) 6 nM, and activated protein C (APC) 5 nM. Two-fold dilutions of the peptide were prepared that ranged from 0.04 to 40 µM. The following fluorogenic substrates were used at a final concentration of 50 µM: Z-Phe-Arg-AMC (Bachem) for plasma kallikrein; Boc-Phe-Ser-Arg-AMC (Bachem) for factor XIa; Z-Gly-Gly-Arg-AMC (Bachem) for tPA, uPA, thrombin, and trypsin; H-D-Val-Leu-Lys-AMC (Bachem) for plasmin; and D-Phe-Pro-Arg-ANSNH-C4H9 (Haematologic Technologies) for FVIIa and FXa. For APC, the chromogenic substrate pyroGlu-Pro-Arg-pNA (S2366) was used at a concentration of 400 µM. […]
# plasma kallikrein = target: T2, plasma kallikrein (Homo sapiens, UniProt P03952)
# T2 construct: 1.5 nM, factor XIa (Innovative Research) 6 nM, plasma kallikrein (Innovative Research) 0.25; purchased Innovative Research
# Description: as §1, §2, §3, §4, §5, §6, §7
# trypsin = target: T3, trypsin (Homo sapiens, UniProt P07477)
# T3 construct: purchased Molecular Innovations
# Description: as §1, §2, §3, §4, §5, §6, §7
# factor Xa = target: T4, factor Xa (Homo sapiens, UniProt P00742)
# T4 construct: (Molecular Innovations) 0.05 nM, factor VIIa (Haematologic Technologies) 50 nM, factor Xa; purchased Haematologic Technologies
# Description: as §1, §2, §3, §4, §5, §6, §7
# [1] = inhibitor 39.0625 nM, 0.0390625 µM
# [2] = inhibitor 78.125 nM, 0.078125 µM
# [3] = inhibitor 156.25 nM, 0.15625 µM
# [4] = inhibitor 40000 nM (40 µM), 40 µM
# T1 sequence (P00750 36-562): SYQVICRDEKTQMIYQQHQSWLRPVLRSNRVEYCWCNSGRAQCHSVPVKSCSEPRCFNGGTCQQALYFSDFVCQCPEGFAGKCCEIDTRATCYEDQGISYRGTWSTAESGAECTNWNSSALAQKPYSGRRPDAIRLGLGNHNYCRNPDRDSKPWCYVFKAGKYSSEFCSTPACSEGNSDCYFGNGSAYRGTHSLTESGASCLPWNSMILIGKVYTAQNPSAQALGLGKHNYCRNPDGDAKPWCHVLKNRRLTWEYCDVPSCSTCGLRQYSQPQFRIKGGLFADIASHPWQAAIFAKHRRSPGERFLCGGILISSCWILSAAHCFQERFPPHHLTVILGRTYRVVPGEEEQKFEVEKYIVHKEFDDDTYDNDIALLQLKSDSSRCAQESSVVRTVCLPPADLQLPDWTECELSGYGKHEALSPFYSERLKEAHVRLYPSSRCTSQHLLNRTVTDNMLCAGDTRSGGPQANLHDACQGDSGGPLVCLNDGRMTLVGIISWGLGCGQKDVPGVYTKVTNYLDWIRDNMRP
# T2 sequence (P03952 391-638 limits assumed): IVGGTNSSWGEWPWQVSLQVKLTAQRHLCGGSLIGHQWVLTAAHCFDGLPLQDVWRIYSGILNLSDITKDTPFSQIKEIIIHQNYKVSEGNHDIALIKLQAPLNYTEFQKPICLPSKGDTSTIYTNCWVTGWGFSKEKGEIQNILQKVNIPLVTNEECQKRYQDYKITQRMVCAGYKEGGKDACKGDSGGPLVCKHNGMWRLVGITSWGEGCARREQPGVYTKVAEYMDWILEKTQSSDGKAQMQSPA
# T2 sequence (P03952 20-390 limits assumed): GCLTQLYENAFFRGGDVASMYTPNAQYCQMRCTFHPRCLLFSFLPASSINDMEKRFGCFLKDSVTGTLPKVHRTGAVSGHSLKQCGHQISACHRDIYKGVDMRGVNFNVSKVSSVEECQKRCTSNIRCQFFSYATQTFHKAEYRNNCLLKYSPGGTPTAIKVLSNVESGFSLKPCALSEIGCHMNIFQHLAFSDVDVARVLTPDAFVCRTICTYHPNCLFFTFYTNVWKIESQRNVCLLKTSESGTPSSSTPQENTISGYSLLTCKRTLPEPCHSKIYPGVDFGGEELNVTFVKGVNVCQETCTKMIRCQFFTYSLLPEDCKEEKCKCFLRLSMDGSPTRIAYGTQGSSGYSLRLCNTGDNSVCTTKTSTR
# T4 sequence (P00742 235-488 limits assumed): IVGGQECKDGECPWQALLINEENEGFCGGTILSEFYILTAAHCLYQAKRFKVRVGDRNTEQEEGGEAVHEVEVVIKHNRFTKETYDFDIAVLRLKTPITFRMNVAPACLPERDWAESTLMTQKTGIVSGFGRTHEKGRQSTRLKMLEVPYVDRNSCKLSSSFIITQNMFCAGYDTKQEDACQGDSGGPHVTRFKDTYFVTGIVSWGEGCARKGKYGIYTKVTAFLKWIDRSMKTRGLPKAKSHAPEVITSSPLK
# T4 sequence (P00742 41-179 limits assumed): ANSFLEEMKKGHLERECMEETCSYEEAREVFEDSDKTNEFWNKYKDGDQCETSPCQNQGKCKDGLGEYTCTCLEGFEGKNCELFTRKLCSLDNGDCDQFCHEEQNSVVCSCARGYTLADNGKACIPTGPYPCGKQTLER
smiles,measurement,setting,value
CC(C)C[C@@H]1NC(=O)[C@H](CCC(N)=O)NC(=O)[C@H](Cc2c[nH]cn2)NC(=O)[C@@H]2CSCCC(=O)N3CN(CN(C3)C(=O)CCSC[C@H](NC(=O)[C@@H](CO)NC(=O)[C@H](N)CCCNC(=N)N)C(=O)N[C@@H](Cc3ccc(F)cc3)C(=O)N[C@@H](CCCNC(=N)N)C(=O)N[C@@H](CC(C)C)C(=O)N3CCC[C@H]3C(=O)N2)C(=O)CCSC[C@@H](C(N)=O)NC(=O)C[C@H](CCCNC(=N)N)NC1=O [FXII900] (H-[dR][dS]C[Phe(4-F)]RLPCHQL[β3hR]C-NH2; linker 3-8-13 via TATA),Ki,tPA,> 40 µM
same,remaining activity at 0.0390625 µM,tPA; inhibitor 39.0625 nM,95.1%
same,Residual activity of tPa,tPA; [1],93.3208%
same,remaining activity at 0.078125 µM,tPA; inhibitor 78.125 nM,95.9%
same,Residual activity of tPa,tPA; [2],101.687%
same,remaining activity at 0.15625 µM,tPA; inhibitor 156.25 nM,98.8%
same,Residual activity of tPa,tPA; [3],101.694%
same,remaining activity at 0.3125 µM,tPA; inhibitor 312.5 nM,97.2%
same,Residual activity of tPa,"tPA; inhibitor 312.5 nM, 0.3125 µM",101.741%
same,remaining activity at 0.625 µM,tPA; inhibitor 625 nM,95%
same,Residual activity of tPa,"tPA; inhibitor 625 nM, 0.625 µM",94.8368%
same,remaining activity at 1.25 µM,tPA; inhibitor 1250 nM,101%
same,Residual activity of tPa,"tPA; inhibitor 1250 nM, 1.25 µM",102.859%
same,remaining activity at […],tPA; inhibitor 2500 nM,100%
same,Residual activity of tPa,"tPA; inhibitor 2500 nM, […]",101.452%
same,remaining activity at 5 µM,tPA; inhibitor 5000 nM,87.2%
same,Residual activity of tPa,"tPA; inhibitor 5000 nM, 5 µM",93.856%
same,Residual activity of tPa,"tPA; inhibitor 10000 nM, 10 µM",102.407% and 77.7753%
same,remaining activity at 20 µM,tPA; inhibitor 20000 nM,89.2%
same,Residual activity of tPa,"tPA; inhibitor 20000 nM, 20 µM",97.2498%
same,remaining activity at 40 µM,tPA; inhibitor 40000 nM (40 µM),97%
same,Residual activity of tPa,tPA; [4],94.4809% and 101.833%
same,Ki,plasma kallikrein,> 40 µM
same,remaining activity at 0.0390625 µM,plasma kallikrein; inhibitor 39.0625 nM,98.1%
same,Residual activity of Plasma kallikrein,plasma kallikrein; [1],100.436%
same,remaining activity at 0.078125 µM,plasma kallikrein; inhibitor 78.125 nM,98.4%
same,Residual activity of Plasma kallikrein,plasma kallikrein; [2],99.938%
same,remaining activity at 0.15625 µM,plasma kallikrein; inhibitor 156.25 nM,98.9%
same,Residual activity of Plasma kallikrein,plasma kallikrein; [3],99.0018%
same,remaining activity at 0.3125 µM,plasma kallikrein; inhibitor 312.5 nM,102%
same,Residual activity of Plasma kallikrein,"plasma kallikrein; inhibitor 312.5 nM, 0.3125 µM",98.8676%
same,remaining activity at 0.625 µM,plasma kallikrein; inhibitor 625 nM,101%
same,Residual activity of Plasma kallikrein,"plasma kallikrein; inhibitor 625 nM, 0.625 µM",98.0454%
same,remaining activity at 1.25 µM,plasma kallikrein; inhibitor 1250 nM,101%
same,Residual activity of Plasma kallikrein,"plasma kallikrein; inhibitor 1250 nM, 1.25 µM",97.0056%
same,remaining activity at […],plasma kallikrein; inhibitor 2500 nM,96%
same,Residual activity of Plasma kallikrein,"plasma kallikrein; inhibitor 2500 nM, […]",95.4747%
same,remaining activity at 5 µM,plasma kallikrein; inhibitor 5000 nM,92.8%
same,Residual activity of Plasma kallikrein,"plasma kallikrein; inhibitor 5000 nM, 5 µM",93.0245%
same,remaining activity at 10 µM,plasma kallikrein; inhibitor 10000 nM,91.9%
same,Residual activity of Plasma kallikrein,"plasma kallikrein; inhibitor 10000 nM, 10 µM",91.0418%
same,remaining activity at 20 µM,plasma kallikrein; inhibitor 20000 nM,84.1%
same,Residual activity of Plasma kallikrein,"plasma kallikrein; inhibitor 20000 nM, 20 µM",81.6415%
same,remaining activity at 40 µM,plasma kallikrein; inhibitor 40000 nM (40 µM),72%
same,Residual activity of Plasma kallikrein,plasma kallikrein; [4],73.9098% and 69.1761%
same,Ki,trypsin,1.46 µM
same,remaining activity at 0.0390625 µM,trypsin; inhibitor 39.0625 nM,99%
same,Residual activity of Trypsin,trypsin; [1],98.1138%
same,remaining activity at 0.078125 µM,trypsin; inhibitor 78.125 nM,100%
same,Residual activity of Trypsin,trypsin; [2],99.9393%
same,remaining activity at 0.15625 µM,trypsin; inhibitor 156.25 nM,91.6%
same,Residual activity of Trypsin,trypsin; [3],92.2203%
same,remaining activity at 0.3125 µM,trypsin; inhibitor 312.5 nM,86%
same,Residual activity of Trypsin,"trypsin; inhibitor 312.5 nM, 0.3125 µM",88.4651%
same,remaining activity at 0.625 µM,trypsin; inhibitor 625 nM,77.9%
same,Residual activity of Trypsin,"trypsin; inhibitor 625 nM, 0.625 µM",73.7094%
same,remaining activity at 1.25 µM,trypsin; inhibitor 1250 nM,64%
same,Residual activity of Trypsin,"trypsin; inhibitor 1250 nM, 1.25 µM",61.5181%
same,remaining activity at […],trypsin; inhibitor 2500 nM,47.5%
same,Residual activity of Trypsin,"trypsin; inhibitor 2500 nM, […]",46.5602%
same,remaining activity at 5 µM,trypsin; inhibitor 5000 nM,34.6%
same,Residual activity of Trypsin,"trypsin; inhibitor 5000 nM, 5 µM",30.2825%
same,remaining activity at 10 µM,trypsin; inhibitor 10000 nM,21%
same,Residual activity of Trypsin,"trypsin; inhibitor 10000 nM, 10 µM",19.2935%
same,remaining activity at 20 µM,trypsin; inhibitor 20000 nM,12.9%
same,Residual activity of Trypsin,"trypsin; inhibitor 20000 nM, 20 µM",12.2739%
same,remaining activity at 40 µM,trypsin; inhibitor 40000 nM (40 µM),9.2%
same,Residual activity of Trypsin,trypsin; [4],9.912% and 8.397%
same,Residual activity of FXa,factor Xa; [1],101.787%
same,remaining activity at 0.0390625 µM,"factor Xa; inhibitor 39.0625 nM, read-out: Residual activity of FXa",94.8%
same,Residual activity of FXa,factor Xa; [2],97.2913%
same,remaining activity at 0.078125 µM,"factor Xa; inhibitor 78.125 nM, read-out: Residual activity of FXa",93.4%
same,Residual activity of FXa,factor Xa; [3],100.804%
same,remaining activity at 0.15625 µM,"factor Xa; inhibitor 156.25 nM, read-out: Residual activity of FXa",97.6%
same,Residual activity of FXa,"factor Xa; inhibitor 312.5 nM, 0.3125 µM",95.4335%
same,remaining activity at 0.3125 µM,"factor Xa; inhibitor 312.5 nM, read-out: Residual activity of FXa",95.1%
same,Residual activity of FXa,"factor Xa; inhibitor 625 nM, 0.625 µM",101.673%
same,remaining activity at 0.625 µM,"factor Xa; inhibitor 625 nM, read-out: Residual activity of FXa",97.6%
same,Residual activity of FXa,"factor Xa; inhibitor 1250 nM, 1.25 µM",99.2096%
same,remaining activity at 1.25 µM,"factor Xa; inhibitor 1250 nM, read-out: Residual activity of FXa",99.4%
same,Residual activity of FXa,"factor Xa; inhibitor 2500 nM, […]",104.071%
same,remaining activity at […],"factor Xa; inhibitor 2500 nM, read-out: Residual activity of FXa",98.3%
same,Residual activity of FXa,"factor Xa; inhibitor 5000 nM, 5 µM",101.691%
same,remaining activity at 5 µM,"factor Xa; inhibitor 5000 nM, read-out: Residual activity of FXa",94.7%
same,Residual activity of FXa,"factor Xa; inhibitor 10000 nM, 10 µM",102.146%
same,remaining activity at 10 µM,"factor Xa; inhibitor 10000 nM, read-out: Residual activity of FXa",99.4%
same,Residual activity of FXa,"factor Xa; inhibitor 20000 nM, 20 µM",104.386%
same,remaining activity at 20 µM,"factor Xa; inhibitor 20000 nM, read-out: Residual activity of FXa",94.7%
same,Residual activity of FXa,factor Xa; [4],96.1187% and 97.9911%
same,remaining activity at 40 µM,"factor Xa; inhibitor 40000 nM (40 µM), read-out: Residual activity of FXa",97.1%
same,Ki,factor Xa; read-out: Ki FXa,> 40 µM
